Laboratory results reported in PubChem BioAssay (NCI).
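48-hour exposure; five concentrations; linearly interpolated endpoints. Definition used: TGI = concentration required for complete inhibition of growth.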

Columns and labels:
Assay in all cases: inhibition of tumour cell growth, NCI panel, 48 h
SNB-75 CNS = tested on: SNB-75 CNS
SW-620 colon = tested on: SW-620 colon
A549 NSCLC = tested on: A549 NSCLC
SK-OV-3 ovarian = tested on: SK-OV-3 ovarian
NCI-H226 lung = tested on: NCI-H226 lung
HCT-15 colon = tested on: HCT-15 colon
K-562 leukemia = tested on: K-562 leukemia
NCI-H522 lung = tested on: NCI-H522 lung
OVCAR-4 ovarian = tested on: OVCAR-4 ovarian
IGROV1 ovarian = tested on: IGROV1 ovarian
A498 renal = tested on: A498 renal
MDA-MB-231 breast = tested on: MDA-MB-231 breast
HOP-62 NSCLC = tested on: HOP-62 NSCLC
ACHN renal = tested on: ACHN renal
T-47D breast = tested on: T-47D breast
SK-MEL-5 melanoma = tested on: SK-MEL-5 melanoma
HT29 colon = tested on: HT29 colon
EKVX NSCLC = tested on: EKVX NSCLC
MOLT-4 leukemia = tested on: MOLT-4 leukemia

SMILES | TGI (SNB-75 CNS) [µM] | TGI (SW-620 colon) [µM] | TGI (A549 NSCLC) [µM] | TGI (SK-OV-3 ovarian) [µM] | TGI (NCI-H226 lung) [µM] | TGI (HCT-15 colon) [µM] | TGI (K-562 leukemia) [µM] | TGI (NCI-H522 lung) [µM] | TGI (OVCAR-4 ovarian) [µM] | TGI (IGROV1 ovarian) [µM] | TGI (A498 renal) [µM] | TGI (MDA-MB-231 breast) [µM] | TGI (HOP-62 NSCLC) [µM] | TGI (ACHN renal) [µM] | TGI (T-47D breast) [µM] | TGI (SK-MEL-5 melanoma) [µM] | TGI (HT29 colon) [µM] | TGI (EKVX NSCLC) [µM] | TGI (MOLT-4 leukemia) [µM]
O=C1c2c(Br)sc(Br)c2[C@@H](Cl)[C@H]1Cl | 34.1 | > 100 | 79.7 | 36.3 | 36.4 | 71.3 | > 100 | 10.9 | 37.4 | 42 | > 100 | 36.8 | 35.5 | 37.4 | 44.8 | 31.1 | > 100 | 46.6 | > 100
C=C1C(=O)O[C@H]2C1C[C@@H](O)/C(C)=C/CC[C@@]1(C)O[C@H]21 (some centres not stated) | 34.7 | 17.9 | > 91 | > 82.7 | > 96.4 | 58.8 | 28.8 | 15.1 | > 43.4 | > 43.8 | 63.1 | 44.8 | > 95.6 | 37.7 | 50 | 49.1 | > 57 | 38.9 | 22.3
CN(CCNC(=O)c1c[nH]c2c1ccc1ccccc12)CCNC(=O)c1c[nH]c2c1ccc1ccccc12 | 3.38 | 3.08 | 5.83 | 18.4 | 40.5 | 3.83 | 3.31 | 3.45 | 11.7 | 3.08 | 8.47 | 3.2 | 6.03 | 4.72 | 2.7 | 21.1 | 3.5 | 11.1 | 4.3
